{
  "source": "patent US20210108199A1",
  "about": "“Treatment for aggressive cancers by targeting C9ORF72” (The Trustees of Columbia University in the City of New York, priority 2017, published 2021)",
  "type_in_all_cases": "cell-based",
  "key": {"[1]": {"system": "RAS/RAC1 signaling pathway", "experiment": "Western blot of RAS, RAC1 and phospho-ERK", "conditions": "U87 cells", "procedure": "(§1) For Western blot analysis, cells were lysed with lysis buffer (20 mM sodium phosphate (pH 7.0), 250 mM NaCl, 30 mM sodium pyrophosphate, 0.1% Nonidet™ P-40, 5 mM EDTA, 10 mM NaF, 0.1 mM Na3VO4, and 1 mM PMSF) supplemented with complete protease inhibitors (Roche™) and homogenized by passage through a 28 gauge needle. Protein concentration was measured with a Bio-Rad™ protein assay dye reagent and results were read using a spectrophotometer (BiophotometerPlus™ by Eppendorf™). Protein extracts were resolved by SDS PAGE on gradient (Thermo Fisher™) or 12% gels. Proteins were then electrotransferred at 350 mA for 80 minutes onto a PVDF membrane (Immobilon-P PVDF). Membranes were blocked with PBST with 5% milk and 1% BSA for 30 minutes. Quantitation of blots was performed Image Studio Lite software (LI-COR Biosciences™).\nMacropinocytosis is reported to be dependent on RAS and/or RAC1 activation, therefore whether the RAS/RAC1 signaling pathway is activated upon C9 KD was explored. First, RAS and RAC1 protein levels were measured in U87 cells upon C9 KD. […] If the RAS/RAC1 pathway is active, then ERK1/2 phosphorylation should be observed. FIG. 14 is a WB of U87 cells treated with control (siCtrl) and C9 siRNA (siC9; SEQ ID NO:631) measuring protein levels of RAS and phospho-ERK and loading control actin (left) and a WB showing RAC1 levels under the same conditions with actin as loading control (right). […] Therefore both macropinocytosis and RAS/RAC1 signaling pathways are a possible therapeutic targets in C9 ALS."}, "[2]": {"system": "caspase-3, PARP1", "experiment": "Western blot of caspase-3 and PARP1 cleavage", "conditions": "U87 cells", "procedure": "as §1\nTo check known markers of apoptosis, including caspase-3 cleavage and PARP1 cleavage, U87 cells were treated with doxorubicin as a positive control for apoptotic markers. […] FIG. 17 is a set of WB visualizing the levels of cleaved and un-cleaved caspace-3, and cleaved and un-cleaved PARP1 in cells treated with control (siCtrl) and C9 (siC9; SEQ ID NO:631) siRNA, and U87 cells treated."}, "[3]": {"system": "U87 cells", "experiment": "Vacuole quantitation in phase contrast images after C9 KD", "conditions": "3 days, vs siCtrl", "procedure": "For siRNA knockdown experiments, siRNAs targeting C9 mRNA were designed with the Whitehead website (sirna.wi.mit.edu) and with RNAxs webserver (rna.tbi.univie.ac.at/cgi-bin/RNAxs). All siRNAs were obtained from GenePharma™. Lipofectamine RNAiMAX (Thermo Scientific™) was used as the transfection reagent for all siRNA experiments (according to the manufacturer's instructions). siRNA concentration was 40 nM per 60 mm plate. After 6 hours, media was changed and cells were treated again with siRNA after 48 hours. For RNA and protein analysis, cells were harvested after 48 hours following the second treatment. All KD experiments were performed in three biological replicates. The siRNA sequences were as follows: […] (SEQ ID NO:631; sense) and […] (SEQ ID NO:632; antisense); and GCACAUAUGGACUAUCAAUtt (SEQ ID NO:633; sense) and AUUGAUAGUCCAUAUGUGCtg (SEQ ID NO:634; antisense). The lower case letters in the sequence indicate location where optional modifications can be placed to enhance stability of the RNA.\nThe vacuoles were examined in order to reveal the mechanism by which C9 protein levels contribute to vacuole initiation. […] The number of vacuoles per cell were counted using imageJ™ from 3 biological replicates and a total of about 50 cells were quantitated, each dot representing a measurement of vacuoles per one cell FIG. 2A). […] Statistical significance was assessed by two tailed t-test. […]"}, "[4]": {"system": "EGF mRNA", "experiment": "qRT-PCR of EGF mRNA", "conditions": "U87 cells", "procedure": "(§2) For most RNA experiments, RNA was isolated from cells using the Qiagen™ RNeasy minikit. Complementary DNA was generated using the Qiagen™ Quantitect™ reverse transcription kit with 0.5 μg of input RNA as measured with a NanoDrop spectrophotometer (Thermo Scientific™). Real-time PCR was carried out on an ABI StepOne Plus™ machine using power SYBR Green dye (Thermo Scientific™). Transcript levels were assayed in triplicate and normalized to RPL32 and HPS90 mRNAs. Relative changes in cDNA levels were calculated using the comparative Ct method (ΔΔCT method). All RT-qPCR primers were designed with Primer3Plus™ or retrieved from Primerbank™. Primer sequences are listed here, including in Table 3. All primers were purchased from Life Technologies™. H. Generation of p53 Knock Out U87 Cell Lines by CRISPR\nHow C9 levels affect EGF signaling was investigated. […] Furthermore, after 48 and 72 hours, the reduction of EGF mRNA levels was about 97%. See FIG. 39, which presents data from qRT-PCR analysis, showing mRNA levels of C9ORF72 and EGF in U87 cells treated with control or C9 siRNA for 24, 48 and 72 hours (represented as fold change). Statistical significance was assessed by an unpaired t-test: NS P>0.05, *P≤0.05, **P≤0.01, ***P≤0.001 ****P 0.0001."}, "[5]": {"system": "p53 null U87 cells", "experiment": "qRT-PCR in p53 null U87 KO #4 cells", "procedure": "as §2\nSee FIG. 32, which presents RT-qPCR analysis of C9ORF72, CDKN1A (p21), PUMA, MDM2 and PARP1 mRNA levels in U87 KO #4 cells treated with control (siCtrl) and C9 (siC9; SEQ ID NO:631) siRNA. These experiments were performed in three biological replicates (n=3) and error bars represent S.E.M. Statistical significance was assessed by unpaired t-test: NS P>0.05, *P≤0.05, **P≤0.01, ***P≤0.001 ****P≤0.0001."}},
  "data": [
    {"substance": "siC9: siRNA targeting C9 mRNA: UUAAUGAAACAAUAAUCACUC (SEQ ID NO:631; sense) and GUGAUUAUUGUUUCAUUAAUC (SEQ ID NO:632; antisense) (listed as RNA, chemistry not given here)", "values": [
      {"measurement": "RAC1 protein levels", "setting": "[1]", "result": "elevated"},
      {"measurement": "RAS protein levels", "setting": "[1]", "result": "elevated"},
      {"measurement": "phosphorylation of ERK1/2", "setting": "[1]", "result": "increased phosphorylation"},
      {"measurement": "PARP1 cleavage", "setting": "[2]", "result": "not observed"},
      {"measurement": "PARP1 protein", "setting": "[2]", "result": "no PARP1 protein observed"},
      {"measurement": "caspase 3 cleavage", "setting": "[2]", "result": "did not lead to caspase 3 cleavage"},
      {"measurement": "size of vacuoles", "setting": "[3]", "result": "significant increase"},
      {"measurement": "total vacuoles per cell", "setting": "[3]", "result": "significant increase"},
      {"measurement": "reduction of EGF mRNA levels", "setting": "[4]; 24 hours after C9 KD", "result": 50, "unit": "%"},
      {"measurement": "reduction of EGF mRNA levels", "setting": "[4]; 48 hours", "result": "about 97%"},
      {"measurement": "reduction of EGF mRNA levels", "setting": "[4]; 72 hours", "result": "about 97%"},
      {"measurement": "PUMA and MDM2 mRNA", "setting": "[5]; p53 null U87 KO #4 cells", "result": "lower levels"},
      {"measurement": "p21 mRNA", "setting": "[5]; p53 null U87 KO #4 cells", "result": "did not result in a significant change"},
      {"measurement": "PARP1 mRNA", "setting": "[5]; p53 null U87 cells", "result": "repression was also observed"}
    ]}
  ]
}
